Measurements as given in US20250129033A1, “METAP2 INHIBITORS AND USES THEREOF” (Yissum Research Development Company of the Hebrew …, priority 2022, published 2025).

Experiments:
HUVECs = experiment: HUVEC proliferation assay (MTT); type: cell-based, human; settings: for reduction in HUVECs proliferation: 72 h, MTT
Procedure: Human Umbilical Vein Endothelial Cells (HUVECs) or human melanoma cell line (A375) were used to validate the ability of the compound to suppress endothelial cell proliferation. Each 1500 A375 cells/well or 2000 HUVEC cells/well were seeded in a 96 wells plate and allowed to adhere to the plate for few hours. Compounds were then added to the cells at concentration range of 0.05-10 μM (<0.1% DMSO). Cells were then incubated for additional 72 hours and MTT was done (2 to 3 h at 37° C.). The dye was solubilized with DMSO and the absorbance was determined at 570 nm.
(§1) A375 were seeded (2000 cells/well) exposed to TNP-470 and to arrange concentrations of AD-3281 (1-100 μM) cells were incubated for 72 h at 37° C., After incubation, MTT (Sigma Aldrich, St. Louis City, MO, USA) was added (0.5 mg/mL) into each well for viability detection and incubated at 37° C. and 5% CO2 for 40 minutes. The absorbance was measured at 540 nm using a plate reader (Wallac 1420 VICTOR plate reader, Perkin-Elmer Life Sciences, USA). The proliferation of HUVECs was measured under the same conditions. HUVECs were seeded (3000 cells/well) in 96-well plates
To further verify the inhibition activity of encapsulated AD-3281 in PLGA nanoparticles HUVECS and A375 were exposed to different concentrations of nanoparticles equivalent to 50-1000 nM free AD-3281 (0.2-4.16 mg/ml nanoparticles) empty nanoparticles were added as a control. The effect of AD-3281 on HUVECs growth was evaluated after 5 days.
as §1, with “after” for “After”, “plates. […]” for “plates”

[1] = molecular target: T1, recombinant human methionine aminopeptidase 2 (Homo sapiens, UniProt P50579); experiment: Enzymatic activity assay on recombinant human MetAp2 (L-Met-AMC); type: biochemical; settings: 2.5 μM, over the course of 1 h, vs untreated control
T1 construct: purchased bio-techne 3795-ZN
Procedure: The enzymatic assay was performed using 5 μg protein per sample as described previously. To test the inhibitory effect of AD-3281, at the same conditions, AD-3281 was also added to 0.33 μg recombinant human methionine aminopeptidase 2 obtained from bio-techne (USA, 3795-ZN), samples were incubated with the inhibitor for 15 min at RT before adding the substrate. The reaction was started by adding 250 μM L-Met-AMC as a substrate. An increase of fluorescence, due to substrate degradation during the enzymatic assay, was measured every 20 seconds for 1 h and 30 min at 37° C. using a plate reader (Wallac 1420 VICTOR plate reader, Perkin-Elmer Life Sciences, USA). The assay was carried out on a 96-well plate on ice and it was performed in an assay buffer (pH 7.5) containing 50 mM HEPES, 0.1 mM CoCl2, 100 mM NaCl and 1 mg/mL PEG 6000, in a final volume of 100 μL.
A375 and MDA-MB-231 were sub-cultivated using trypsin, then centrifuged and counted. […] The protein content of the supernatant was determined according to the Bradford protein assay using BSA as the standard. […] An increase of fluorescence, due to substrate degradation during the enzymatic assay, was measured every 20 seconds for 1 h and 30 min at 37° C. using a plate reader (Wallac 1420 VICTOR plate reader, Perkin-Elmer Life Sciences, USA). […]

[2] = tested on: Choroidal Neovascularization (CNV); experiment: Laser-induced CNV in mice; type: in vivo, C57Bl/6J mice; settings: 12 μg per eye, intravitreal, 7 days
Source text: Laser-induced CNV was generated by a previously described technique with some modifications. C57Bl/6J mice (6-8 weeks) were anesthetized by intraperitoneal injections of a mixture of 85% ketamine and 15% xylazine. A mixture of 0.5% tropicamide and 0.5% phenylephrine hydrochloride was applied to both eyes to dilate the pupils. Lesions were induced by a diode pumped solid state laser (0.1 s; spot size, 100 μm; power 120 mW) around the optic nerve through a slit lamp delivery system using a Nidek while a hand-held cover slide was used as a contact lens. Only lesions in which a subretinal bubble or focal serous detachment of the retina developed were used for the experiments. For this purpose, 4 burns were performed per eye while leaving a space around the optic disc. Intravitreal injections of the treatments were performed using a PLI-100 Pico-Injector following the laser procedure. After 7 days mice were euthanized and their eyes were removed and fixed in 4% paraformaldehyde for 60 min. The cornea and lens were removed, and the entire retina was carefully dissected from the eyecup Choroid.
Blood vessels were labeled using a 1:200 dilution of isolectin IB4 conjugated with Alexa Fluor 488 or lectin-FITC. The eyecup was flat-mounted in an aqua-mount with the sclera facing down and the choroid facing up. […] The CNV area (presented in μm2) in choroidal flat mount was evaluated using ImageJ software […]

T1 sequence (P50579 whole entry): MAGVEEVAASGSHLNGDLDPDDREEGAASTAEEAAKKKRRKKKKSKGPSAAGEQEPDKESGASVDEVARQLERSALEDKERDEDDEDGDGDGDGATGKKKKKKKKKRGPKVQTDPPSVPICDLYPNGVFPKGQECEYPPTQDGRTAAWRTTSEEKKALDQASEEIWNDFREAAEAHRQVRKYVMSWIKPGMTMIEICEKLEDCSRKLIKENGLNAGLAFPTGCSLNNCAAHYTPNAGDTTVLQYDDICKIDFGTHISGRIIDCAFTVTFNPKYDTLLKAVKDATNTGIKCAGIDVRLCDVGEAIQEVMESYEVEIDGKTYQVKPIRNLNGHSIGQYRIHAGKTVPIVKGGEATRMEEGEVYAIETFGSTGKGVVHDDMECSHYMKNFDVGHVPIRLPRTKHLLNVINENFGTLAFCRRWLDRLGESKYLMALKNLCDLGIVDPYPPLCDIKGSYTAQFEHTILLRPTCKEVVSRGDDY

COC1C(OC(=O)CC23CC4CC(CC(C4)C2)C3)CCC2(CO2)C1C1(C)OC1CC=C(C)C (centres unmarked) [AD-3281, Fumagillol-1-adamantylacetate]
suppression of endothelial cell proliferation (ranking among compounds) (HUVECs): most active | reduction in HUVECs proliferation (HUVECs; 1 μM): 40% | reduction in HUVECs proliferation (HUVECs; 10 μM): 50% | inhibition of rhMetAp2 enzymatic activity [1]: 95% | effect on mouse laser induced CNV [2]: 46%
